In ChEMBL document CHEMBL4742392, “Tetrahydropyridopyrazine modulators of GPR6” (2019):

Experiments:
[1] = Cardiotoxicity in Beagle dog at 30 to 300 mg/kg, po by telemetry analysis; format: toxicity, organism-based, Canis lupus familiaris; conditions: in vivo, dose 30-300 mg/kg
Rattus norvegicus = species: Rattus norvegicus; assay: Neuroprotective actvity against 6-OHDA-induced rat Parkinson's disease model assessed as improved locomotory actvity by open-field test; format: functional, organism-based; conditions: dose 5-10 mg/kg

Question: Which Activity [1] does the source give for `CC(=O)N1CCc2nc(N3CCC(Oc4ccc(F)cc4F)CC3)c(N[C@@H]3CCOC3)nc2C1` here?
Answer: Non-Toxic

Question: What about the Activity (Rattus norvegicus) of the same compound?
Answer: Dose-dependent effect
